Data from patent US4310348A, “Plant growth regulating compositions” (priority 1978, dated 1982).
“Also recorded” adds a separate entry of the source.

Legend:
cholinesterase = cholinesterase blocking effect; assay type: biochemical
white rats = experiment: acute oral toxicity (LD50) on white rats; conditions: rat, in vivo
Text: (§1) Therefore, the new compound of the formula (I) can be utilized to advantage as insecticidal agent for controlling granarial insect pests and insects attacking ornamental plants, indoor plants and vegetables.

[1] = tested on: dried bean beetle (Acanthoscelides obtectus); experiment: protection against dried bean beetle, procedure of Example 13(a) (Table 7); assay type: in vivo; conditions: compared with dichlorphon
Method: (§2) The emulsifiable concentrate described in Example 8 was diluted with water to a final active agent content of 3% by weight, and an amount corresponding to 2.5 mg of racemic active agent/cm^2 of plane area of the resulting spray liquid was filled into a cylindrical flask. 20 flies, anaesthetized with carbon dioxide, were placed in the flask, the flask was covered with a Petri dish, and the effect of the active agent was observed. In the control test the same dosage of dichlorphon (O,O-dimethyl-2,2-dichlorovinyl phosphate) was applied as active agent.
Protection against dried bean beetle (Acanthoscelides obtectus)

Carrot = experiment: greenhouse pre-emergent treatment, green weight, carrot (Table 2); assay type: in vivo; conditions: 4-week-old plants
Method: (§3) (a2) Seeds of bean, carrot, flax, green pepper, tomato, spinach, barley and sorghum were sown into cultivation pots (20×20 cm) filled with sand. The cultivation pots were placed in a greenhouse, and treated prior to plant emergence with 0.1 or 0.2 kg of racemic active agent/hectare. The green weights of the 4-week-old plants were measured, and the data were compared to those observed with the untreated controls.

Bean = experiment: greenhouse pre-emergent treatment, green weight, bean (Table 2); assay type: in vivo; conditions: 4-week-old plants
Method: as §3

[2] = tested on: dried bean beetle (Acanthoscelides obtectus); experiment: protection against dried bean beetle on treated bean seeds (Table 8); assay type: in vivo
Method: (b) 100 g of bean seeds each were treated with a spray liquid containing 1.0% by weight of racemic active agent (prepared by diluting an emulsifiable concentrate containing 50% by weight of active agent) in an amount corresponding to 250, 500 and 1000 ppm of active agent, respectively. The control seeds were not treated. The seeds were put into small cylindrical flasks. 20 insects each were placed in the flasks, and the flasks were covered with a cloth. After 14 days the survivors were counted.

Barley = experiment: greenhouse pre-emergent treatment, green weight, barley (Table 2); assay type: in vivo; conditions: 4-week-old plants
Method: as §3

corn [3] = experiment: open-air test on small parcels with dressed corn seeds (Table 3); assay type: in vivo
Method: (§4) 6 parts by weight of a 10% acetone solution of (±)-2-(propargyloxyimino)-1,7,7-trimethyl-bicyclo[2,2,1]heptane are added under stirring to a solution containing 30 parts by weight of acetone, 2.5 parts by weight of hydroxypropyl cellulose, 5 parts by weight of polyethylene glycol (molecular weight: 6000), 20 parts by weight of water and an arbitrary amount of a dyestuff having no germination-inhibiting effect.
(§5) (a1) Three cultivation pots were filled with sand, and 30 corn seeds each were sown. 10 of the seeds were not dressed (untreated controls), 10 of the seeds were dressed with a dressing agent described in Example 10 but containing no active agent (placebo), whereas the remaining 10 seeds were dressed with a dressing agent prepared according to Example 10 containing racemic active agent. The cultivation pots were placed in a greenhouse, and the temperature, light and atmospheric humidity of the greenhouse were maintained at optimum. The percentage of germinating seeds was determined, and on the 14th and 28th days after sowing the height and green weight of the emerged plants were measured. The results of the test are summarized in Table 1, in which the percentage of germination is related to the number of seeds sown, whereas the heights and green weights of the plants are given in percentages related to the untreated controls.
The procedure described in point (a) was repeated with the difference that the seeds were sown in a 10×10 m parcel, the plants were kept under observation for the whole growth season, and the crop yield was also determined. The parcel was hoed in order to remove weeds.

corn [4] = experiment: greenhouse test, plant growth promoting effect on corn from dressed seeds (Table 1); assay type: in vivo
Method: as §4, §5

[5] = tested on: houseflies (Musca domestica); experiment: insecticidal activity, protection against houseflies (Table 5); conditions: in vivo
Method: as §2

Tomato = experiment: greenhouse pre-emergent treatment, green weight, tomato (Table 2); assay type: in vivo; conditions: 4-week-old plants
Method: as §3

Sorghum = experiment: greenhouse pre-emergent treatment, green weight, sorghum (Table 2); assay type: in vivo; conditions: 4-week-old plants
Method: as §3

Green pepper = experiment: greenhouse pre-emergent treatment, green weight, green pepper (Table 2); assay type: in vivo; conditions: 4-week-old plants
Method: as §3

[6] = acute oral toxicity (LD50) on white rats; conditions: rat, in vivo; white rats, oral administration
Text: as §1

Spinach = experiment: greenhouse pre-emergent treatment, green weight, spinach (Table 2); assay type: in vivo; conditions: 0.1 kg/ha, 4-week-old plants
Method: as §3

corn [7] = experiment: open-air test on small parcels, pre- or post-emergent spraying of corn (Table 4); assay type: in vivo; conditions: for Ear yield / Green weight / Height: untreated = 100
Method: 10 parts by weight of (±)-2-(propargyloxyimino)-1,7,7-trimethyl-bicyclo[2,2,1]heptane are dissolved in 9 parts by weight of xylene, and 1 part by weight of a mixture of an anionic and a non-ionic surfactant (e.g. a 2:3 mixture of Atlox 3386 and Atlox 4851) is added to the solution. The mixture is homogenized. An emulsifiable concentrate containing 50% by weight of active agent (50 EC) is obtained, which can be diluted with water to form a spray liquid.
Corn seeds were sown in small (10×10 m) parcels, and the parcels were treated prior to or after plant emergence with an aqueous spray liquid prepared from the emulsifiable concentrate described in Example 8. The concentrate was diluted with rain water to a final active agent content of 0.02 to 0.1%, depending on the dosage applied, and 500 liters/hectare of the spray liquid were applied. The dosages examined in the pre-emergent treatments varied between […] of racemic active agent/hectare, whereas in the post-emergent treatment a dosage of 1 kg of racemic active agent/hectare was applied. The parcels were hoed in order to remove weeds.

Flax = experiment: greenhouse pre-emergent treatment, green weight, flax (Table 2); assay type: in vivo; conditions: 4-week-old plants
Method: as §3

[8] = tested on: housefly (Musca domestica) larvae; experiment: insecticidal activity, protection against housefly larvae (Table 6); assay type: in vivo; conditions: for Development: in relation to the control
Method: 1 kg of wheat barn was admixed with 1 liter of milk, 10 g of fodder yeast and 6 g of Nipagin (ethyl p-hydroxybenzoate) to obtain a culture medium for the cultivation of housefly larvae. 200 g each of the above culture medium were put into small cylindrical flasks, and racemic active agent was added so that the active agent content of the culture medium was 250, 500 and 1000 ppm, respectively. The racemic active agent was introduced in the form of an emulsifiable concentrate containing 50% by weight of the compound concerned, and the culture medium was homogenized with the concentrate. No active agent was introduced into the control flask. 50 one-day-old housefly larvae each were placed in the cylindrical flasks, the flasks were covered with a cloth ensuring good ventilation, and the percentage of images developing from the pupae was determined in relation to the control.

[9] = dressed seeds, open air, untreated control = 100
[10] = 14th day after sowing, related to untreated controls
[11] = 28th day after sowing, related to untreated controls
[12] = post-emergent, 1.0 kg of active agent/hectare
[13] = pre-emergent, 0.1 kg of active agent/hectare
[14] = pre-emergent, 1.0 kg of active agent/hectare
[15] = pre-emergent, 3.0 kg of active agent/hectare
[16] = pre-emergent, 5.0 kg of active agent/hectare

## C#CCON=C1CC2CCC1(C)C2(C)C (racemic) [new compound of the formula (I), 2-(proparglyoxyimino)-1,7,7-trimethyl-bicyclo[2,2,1]heptane]
cholinesterase
  cholinesterase blocking effect: absence of cholinesterase blocking effect
White rats
  toxicity (in words): low toxicity; also recorded: superior to the known active agent with respect to its lower toxicity
[1]
  speed of effect on more resistant test insects (in words): slower on more resistant test insects

## C#CCON=C1CC2CCC1(C)C2(C)C (racemic) [racemic active agent, (±)-2-(propargyloxyimino)-1,7,7-trimethyl-bicyclo[2,2,1]heptane]
Carrot; 0.1 kg/ha
  Green weight in relation to the controls: 105%
Carrot; 0.2 kg/ha
  Green weight in relation to the controls: 140%
Bean; 0.1 kg/ha
  Green weight in relation to the controls: 110%
Bean; 0.2 kg/ha
  Green weight in relation to the controls: 135%
[2]; Acanthoscelides obtectus, 336 h, 250 ppm, after 14 days, percentage of the control, read-out: Survivors
  survival at 250 ppm: 5%
[2]; Acanthoscelides obtectus, 336 h, 500 ppm, after 14 days, percentage of the control, read-out: Survivors
  survival at 500 ppm: 0%
[2]; Acanthoscelides obtectus, 336 h, 1000 ppm, after 14 days, percentage of the control, read-out: Survivors
  survival at 1000 ppm: 0%
[2]; even in a concentration of 250 ppm
  killing of granarial insect pests such as dried bean beetle (in words): can be applied successfully to kill granarial insect pests
Barley; 0.1 kg/ha
  Green weight in relation to the controls: 120%
Barley; 0.2 kg/ha
  Green weight in relation to the controls: 105%
Corn [3]; Table 3
  corn higher by (in comparison with the two controls): 27%
  ear yield greater by (in comparison with the two controls): 20%
  green weight higher by (in comparison with the two controls): 25%
Corn [3]; [9]
  Ear yield: 120%
  Green weight: 125%
  Height: 127%
Corn [4]; [10]
  14th day Green weight: 152%
  14th day Height: 143%
Corn [4]; [11]
  28th day Green weight: 154%
  28th day Height: 148%
Corn [4]; dressed corn seeds, greenhouse, related to number of seeds sown
  Germination: 95%
[5]
  effect on houseflies compared with dichlorphon (in words): approximately the same effect as dichlorphon
Tomato; 0.1 kg/ha
  Green weight in relation to the controls: 120%
Tomato; 0.2 kg/ha
  Green weight in relation to the controls: 112%
Sorghum; 0.1 kg/ha
  Green weight in relation to the controls: 130%
Sorghum; 0.2 kg/ha
  Green weight in relation to the controls: 130%
Green pepper; 0.1 kg/ha
  Green weight in relation to the controls: 95%
Green pepper; 0.2 kg/ha
  Green weight in relation to the controls: 140%
[6]
  LD50: 1400 mg/kg
Spinach
  Green weight in relation to the controls: 135%
Corn [7]; [12]
  Ear yield: 109%
  Green weight: 120%
  Height: 116%
Corn [7]; post-emergent, 1 kg/hectare
  post-emergent results compared with pre-emergent, same dosage (in words): slightly inferior to the former ones
Corn [7]; [13]
  Ear yield: 102%
  Green weight: 108%
  Height: 105%
Corn [7]; pre-emergent, 0.1 kg/hectare
  effectiveness in pre-emergent treatment (in words): effective even in a dosage of 0.1 kg/hectare
Corn [7]; [14]
  Ear yield: 118%
  Green weight: 127%
  Height: 121%
Corn [7]; [15]
  Ear yield: 116%
  Green weight: 135%
  Height: 127%
Corn [7]; [16]
  Ear yield: 107%
  Green weight: 115%
  Height: 115%
Flax; 0.1 kg/ha
  Green weight in relation to the controls: 118%
Flax; 0.2 kg/ha
  Green weight in relation to the controls: 105%
[8]; 250 ppm
  Activity: 70.4%
  Development: 29.6%
[8]; 500 ppm
  Activity: 100.0%
  Development: 0%
[8]; 1000 ppm
  Activity: 100.0%
  Development: 0%
